Test system: 171881-019-R-J1-PDC tumor spheroids, viability
Test: Anticancer human tumor 171881-019-R-J1-PDC patient-derived invasive breast carcinoma cell line growth inhibition [GQUAD]
Details: spheroids with HUVEC and MSC; for IC50: curve of first compound; for viability, T/C: stronger effect = lower value
Procedure, shortened: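 Tumor cells were grown as complex spheroids with HUVEC endothelial cells and mesenchymal stem cells as stroma. G-quadruplex stabilizers were combined with targeted agents over half-log dilutions from near the clinical Cmax, or from 10 microM.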

[1] = second compound 0.0316 µM, first compound 0.0316 µM
[2] = second compound 0.0316 µM, first compound 0.1 µM
[3] = second compound 0.0316 µM, first compound 0.316 µM
[4] = second compound 0.0316 µM, first compound 1 µM
[5] = second compound 0.0316 µM, first compound 3.16 µM
[6] = second compound 0.0316 µM, first compound 10 µM
[7] = second compound 0.1 µM, first compound 0.0316 µM
[8] = second compound 0.1 µM, first compound 0.1 µM
[9] = second compound 0.1 µM, first compound 0.316 µM
[10] = second compound 0.1 µM, first compound 1 µM
[11] = second compound 0.1 µM, first compound 3.16 µM
[12] = second compound 0.1 µM, first compound 10 µM
[13] = second compound 0.316 µM, first compound 0.0316 µM
[14] = second compound 0.316 µM, first compound 0.1 µM
[15] = second compound 0.316 µM, first compound 0.316 µM
[16] = second compound 0.316 µM, first compound 1 µM
[17] = second compound 0.316 µM, first compound 3.16 µM
[18] = second compound 0.316 µM, first compound 10 µM
[19] = second compound 1 µM, first compound 0.0316 µM
[20] = second compound 1 µM, first compound 0.1 µM
[21] = second compound 1 µM, first compound 0.316 µM
[22] = second compound 1 µM, first compound 1 µM
[23] = second compound 1 µM, first compound 3.16 µM
[24] = second compound 1 µM, first compound 10 µM
[25] = second compound 3.16 µM, first compound 0.0316 µM
[26] = second compound 3.16 µM, first compound 0.1 µM
[27] = second compound 3.16 µM, first compound 0.316 µM
[28] = second compound 3.16 µM, first compound 1 µM
[29] = second compound 3.16 µM, first compound 3.16 µM
[30] = second compound 3.16 µM, first compound 10 µM
[31] = second compound 10 µM, first compound 0.0316 µM
[32] = second compound 10 µM, first compound 0.1 µM
[33] = second compound 10 µM, first compound 0.316 µM
[34] = second compound 10 µM, first compound 1 µM
[35] = second compound 10 µM, first compound 3.16 µM
[36] = second compound 10 µM, first compound 10 µM
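Further: spheroids exposed to compounds for 7 days.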
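Wherever viability, T/C is given: 100% = DMSO vehicle control viability.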

Structure (SMILES): COc1cc(C2c3cc4c(cc3C(OC3OC5COC(C)OC5C(O)C3O)C3COC(=O)C23)OCO4)cc(OC)c1O (stereo not drawn) + Cc1cnc(CNC(=O)c2c(=O)c3ccc(N4CCCN(C)CC4)nc3n3c2sc2ccccc23)cn1
- IC50 (second compound 0.0316 µM): 706 nM
- IC50 (second compound 0.1 µM): 907 nM
- IC50 (second compound 0.316 µM): 1060 nM
- IC50 (second compound 1 µM): 1270 nM
- IC50 (second compound 3.16 µM): 1360 nM
- IC50 (second compound 10 µM): 1400 nM
- viability, T/C [1]: 94.5%
- viability, T/C [2]: 79.3%
- viability, T/C [3]: 63.4%
- viability, T/C [4]: 42.5%
- viability, T/C [5]: 31.4%
- viability, T/C [6]: 17.4%
- viability, T/C [7]: 83.7%
- viability, T/C [8]: 75.2%
- viability, T/C [9]: 60.5%
- viability, T/C [10]: 52.3%
- viability, T/C [11]: 30.6%
- viability, T/C [12]: 16.7%
- viability, T/C [13]: 69.9%
- viability, T/C [14]: 74.2%
- viability, T/C [15]: 59.9%
- viability, T/C [16]: 49.5%
- viability, T/C [17]: 36.7%
- viability, T/C [18]: 18.1%
- viability, T/C [19]: 65.4%
- viability, T/C [20]: 61%
- viability, T/C [21]: 59.1%
- viability, T/C [22]: 53.3%
- viability, T/C [23]: 39.9%
- viability, T/C [24]: 19.3%
- viability, T/C [25]: 60.3%
- viability, T/C [26]: 60.2%
- viability, T/C [27]: 60%
- viability, T/C [28]: 53.3%
- viability, T/C [29]: 39.7%
- viability, T/C [30]: 20.9%
- viability, T/C [31]: 58%
- viability, T/C [32]: 57.7%
- viability, T/C [33]: 52.9%
- viability, T/C [34]: 55%
- viability, T/C [35]: 39%
- viability, T/C [36]: 21.1%

Structure (SMILES): COc1cccc2c1C(=O)c1c(O)c3c(c(O)c1C2=O)CC(O)(C(=O)CO)CC3OC1CC(N)C(O)C(C)O1 (stereo not drawn) + Cc1cnc(CNC(=O)c2c(=O)c3ccc(N4CCCN(C)CC4)nc3n3c2sc2ccccc23)cn1
- IC50 (second compound 0.0316 µM): 153 nM
- IC50 (second compound 0.1 µM): 159 nM
- IC50 (second compound 0.316 µM): 169 nM
- IC50 (second compound 1 µM): 155 nM
- IC50 (second compound 3.16 µM): 139 nM
- IC50 (second compound 10 µM): 138 nM
- viability, T/C [1]: 70.5%
- viability, T/C [2]: 54.8%
- viability, T/C [3]: 39%
- viability, T/C [4]: 13.5%
- viability, T/C [5]: 0.14%
- viability, T/C [6]: 0.9%
- viability, T/C [7]: 70.2%
- viability, T/C [8]: 57.4%
- viability, T/C [9]: 37.8%
- viability, T/C [10]: 13.7%
- viability, T/C [11]: 0.14%
- viability, T/C [12]: 0.43%
- viability, T/C [13]: 62.9%
- viability, T/C [14]: 59.9%
- viability, T/C [15]: 38.7%
- viability, T/C [16]: 11.7%
- viability, T/C [17]: 0.32%
- viability, T/C [18]: 0.4%
- viability, T/C [19]: 61.8%
- viability, T/C [20]: 53.2%
- viability, T/C [21]: 41.2%
- viability, T/C [22]: 11.4%
- viability, T/C [23]: 0.12%
- viability, T/C [24]: 0.16%
- viability, T/C [25]: 59.1%
- viability, T/C [26]: 52.5%
- viability, T/C [27]: 39.3%
- viability, T/C [28]: 10.6%
- viability, T/C [29]: 0.2%
- viability, T/C [30]: 0.14%
- viability, T/C [31]: 59.9%
- viability, T/C [32]: 55.9%
- viability, T/C [33]: 35.3%
- viability, T/C [34]: 9.6%
- viability, T/C [35]: 0.2%
- viability, T/C [36]: 0.69%

Structure (SMILES): Nc1ccn(C2OC(CO)C(O)C2(F)F)c(=O)n1 (stereo not drawn) + Cc1cnc(CNC(=O)c2c(=O)c3ccc(N4CCCN(C)CC4)nc3n3c2sc2ccccc23)cn1
- IC50 (second compound 0.0316 µM): < 31.6 nM
- IC50 (second compound 0.1 µM): < 31.6 nM
- IC50 (second compound 0.316 µM): < 31.6 nM
- IC50 (second compound 1 µM): < 31.6 nM
- IC50 (second compound 3.16 µM): < 31.6 nM
- IC50 (second compound 10 µM): < 31.6 nM
- viability, T/C [1]: 27.8%
- viability, T/C [2]: 29.9%
- viability, T/C [3]: 39.4%
- viability, T/C [4]: 38%
- viability, T/C [5]: 33.7%
- viability, T/C [6]: 31.2%
- viability, T/C [7]: 29.8%
- viability, T/C [8]: 31.9%
- viability, T/C [9]: 37.1%
- viability, T/C [10]: 41.4%
- viability, T/C [11]: 37%
- viability, T/C [12]: 33.8%
- viability, T/C [13]: 31.5%
- viability, T/C [14]: 36.2%
- viability, T/C [15]: 44%
- viability, T/C [16]: 37.9%
- viability, T/C [17]: 39.1%
- viability, T/C [18]: 34.7%
- viability, T/C [19]: 35%
- viability, T/C [20]: 35.6%
- viability, T/C [21]: 42.7%
- viability, T/C [22]: 41.2%
- viability, T/C [23]: 44.2%
- viability, T/C [24]: 37.3%
- viability, T/C [25]: 36.2%
- viability, T/C [26]: 38.6%
- viability, T/C [27]: 43.8%
- viability, T/C [28]: 43.3%
- viability, T/C [29]: 44.9%
- viability, T/C [30]: 40%
- viability, T/C [31]: 33.2%
- viability, T/C [32]: 37.3%
- viability, T/C [33]: 39.1%
- viability, T/C [34]: 45.6%
- viability, T/C [35]: 46%
- viability, T/C [36]: 40.8%

Structure (SMILES): O=c1[nH]cc(F)c(=O)[nH]1 + Cc1cnc(CNC(=O)c2c(=O)c3ccc(N4CCCN(C)CC4)nc3n3c2sc2ccccc23)cn1
- IC50 (second compound 0.0316 µM): > 10000 nM
- IC50 (second compound 0.1 µM): > 10000 nM
- IC50 (second compound 0.316 µM): > 10000 nM
- IC50 (second compound 1 µM): > 10000 nM
- IC50 (second compound 3.16 µM): > 10000 nM
- IC50 (second compound 10 µM): > 10000 nM
- viability, T/C [1]: 80.2%
- viability, T/C [2]: 69.5%
- viability, T/C [3]: 57.5%
- viability, T/C [4]: 57.4%
- viability, T/C [5]: 54.5%
- viability, T/C [6]: 57%
- viability, T/C [7]: 77.7%
- viability, T/C [8]: 67.7%
- viability, T/C [9]: 62.2%
- viability, T/C [10]: 58.3%
- viability, T/C [11]: 59.4%
- viability, T/C [12]: 60.4%
- viability, T/C [13]: 68.9%
- viability, T/C [14]: 71.2%
- viability, T/C [15]: 65.6%
- viability, T/C [16]: 58.7%
- viability, T/C [17]: 65.2%
- viability, T/C [18]: 59.4%
- viability, T/C [19]: 67.7%
- viability, T/C [20]: 60.6%
- viability, T/C [21]: 65.5%
- viability, T/C [22]: 60.2%
- viability, T/C [23]: 66.2%
- viability, T/C [24]: 63.1%
- viability, T/C [25]: 65%
- viability, T/C [26]: 59.6%
- viability, T/C [27]: 58.9%
- viability, T/C [28]: 55.5%
- viability, T/C [29]: 65%
- viability, T/C [30]: 62.3%
- viability, T/C [31]: 59.1%
- viability, T/C [32]: 59.6%
- viability, T/C [33]: 55.1%
- viability, T/C [34]: 57.7%
- viability, T/C [35]: 61.5%
- viability, T/C [36]: 54%
